The data set can be described thus: Time-course of drug levels in adult and embryonic mouse plasma, brain and liver after a single subcutaneous injection (LC-MS/MS). The settings on record: mouse, 10 mg/kg.
Where [1] appears, read: female, brain (adult), subcutaneous.
Setting [2] is: female, liver (adult), subcutaneous.

Concentration data for one compound are collected here from patent US12161641B2, “Treatments and prevention of opioid neonatal abstinence syndrome” (Ohio State Innovation Foundation, priority 2016, dated 2024).

In the case of `O=C1CC[C@@]2(O)[C@H]3Cc4ccc(O)c5c4[C@@]2(CCN3CC2CC2)[C@H]1O5` [Naltrexone, naltrexone, reference compound], the concentration at 20 min worked out at 3230 ng/g under setting [1]; 1880 ng/g (female, in vivo); 2100 ng/g under setting [2]. For the same compound, the concentration at 45 min by setting is: under setting [1], 1470 ng/g; (female, in vivo) 620 ng/g; under setting [2], 1390 ng/g; (embryo brain, subcutaneous) 2610 ng/g; (embryo liver, subcutaneous) 3190 ng/g. Besides, the concentration at 2 h by setting is: under setting [1], 250 ng/g; (female, in vivo) 130 ng/g; under setting [2], 360 ng/g; (embryo brain, subcutaneous) 500 ng/g; (embryo liver, subcutaneous) 620 ng/g. In addition, the concentration at 4 h was 18 ng/g under setting [1]; 4 ng/g (female, in vivo); 32 ng/g under setting [2].
